The source made the active and inactive calls.
How the values were obtained:
[1] = molecular target: T1, Bcl-2-like protein 10 (Homo sapiens, UniProt Q9HD36); experiment: Bcl-B/TR3 peptide binding disruption – biochemical, fluorescence polarization, FITC-TR3 peptide, selectivity assay for Bfl-1 inhibitor project, primary screen (AID 748);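 note: fluorescence polarization from a fluorescein-labelled TR3 peptide binding purified Bcl-B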
T1 sequence (Q9HD36 whole entry): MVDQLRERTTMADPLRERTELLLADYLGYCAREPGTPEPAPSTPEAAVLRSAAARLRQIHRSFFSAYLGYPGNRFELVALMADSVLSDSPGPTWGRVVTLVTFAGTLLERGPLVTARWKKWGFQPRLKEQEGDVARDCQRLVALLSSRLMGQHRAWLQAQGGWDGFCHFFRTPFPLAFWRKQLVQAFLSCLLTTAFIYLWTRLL

[2] = molecular target: T2, Estrogen receptor beta (Homo sapiens, UniProt Q92731);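 note: recombinant ER-beta bound to coactivator SRC1 peptide in presence of estradiol agonist; inhibitors block coactivator peptide binding and lower the FRET signal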
[3] = molecular target: T3, Bifunctional protein GlmU (Mycobacterium tuberculosis, UniProt P9WMN3); experiment: Inhibitors of Mycobacterial Glucosamine-1-phosphate acetyl transferase (GlmU). Secondary screen.; set-up: species or system Mycobacterium tuberculosis H37Rv
T3 sequence (P9WMN3 whole entry): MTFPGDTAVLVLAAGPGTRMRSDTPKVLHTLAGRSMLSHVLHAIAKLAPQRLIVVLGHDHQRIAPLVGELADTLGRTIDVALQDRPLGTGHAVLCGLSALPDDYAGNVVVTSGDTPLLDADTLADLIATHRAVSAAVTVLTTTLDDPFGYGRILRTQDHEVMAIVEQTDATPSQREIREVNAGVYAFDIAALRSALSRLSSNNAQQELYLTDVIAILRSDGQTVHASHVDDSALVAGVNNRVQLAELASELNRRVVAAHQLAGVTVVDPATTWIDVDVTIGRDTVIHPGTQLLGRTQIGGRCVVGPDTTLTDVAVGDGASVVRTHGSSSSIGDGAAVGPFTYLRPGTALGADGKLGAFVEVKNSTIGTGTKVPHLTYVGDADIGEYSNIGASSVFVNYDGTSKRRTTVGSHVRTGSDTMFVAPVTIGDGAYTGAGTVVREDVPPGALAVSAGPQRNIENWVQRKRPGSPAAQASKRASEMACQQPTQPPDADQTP

[4] = molecular target: T2, Estrogen receptor beta; experiment: blockers of SRC-3 recruitment to ERβ – biochemical, ELISA, streptavidin-HRP readout, orthogonal assay, confirmation (AID 1060)
[5] = molecular target: Cytochrome P450 2D6 (Homo sapiens, UniProt P10635); experiment: qHTS Assay for Inhibitors and Substrates of Cytochrome P450 2D6. [Related pubchem assays: 410 ]; assay type: ADME; details: read-out: Potency
[6] = system: HEK293; experiment: cells; assay type: functional, cell-based; details: Homo sapiens
[7] = molecular target: Nucleotide-binding oligomerization domain-containing protein 2 (Homo sapiens, UniProt Q9HC29); experiment: inhibition of NOD2-driven NF-kB reporter – cell-based, luminescence, uHTS, HEK293 (AID 1566); assay type: functional
[8] = loss of viability in HepG2 cells – cell-based, CellTiter-Glo, cherry-picked, cytotoxicity control for Shn3 inhibitor project, dose response (AID 624134); assay type: functional
[9] = non-specific 3'UTR reporter inhibition in Clone20-Shn3RL – cell-based, Renilla luciferase, cherry-picked, counter-screen for Shn3 inhibitor project, dose response (AID 624133); assay type: functional
[10] = system: HEK293; experiment: NOD2 signaling inhibitors in MDP-stimulated cells, cell-based, uHTS, luminescence (AID 2001); assay type: functional; details: Homo sapiens
[11] = system: HEK293; experiment: cells; assay type: functional, cell-based; details: Homo sapiens; remark: listed apart in the source
[12] = system: HEK293; experiment: cells; details: Homo sapiens
[13] = molecular target: Tumor necrosis factor (Homo sapiens, UniProt P01375); experiment: analog potency on TNFa NF-kB signaling – cell-based, revised, SAR follow-up (AID 2337); assay type: functional
[14] = molecular target: T4, Nucleotide-binding oligomerization domain-containing protein 1 (Homo sapiens, UniProt Q9Y239); experiment: blockers of NOD1 pathway activity – revised, SAR follow-up (AID 2333); assay type: functional
T4 sequence (Q9Y239 whole entry): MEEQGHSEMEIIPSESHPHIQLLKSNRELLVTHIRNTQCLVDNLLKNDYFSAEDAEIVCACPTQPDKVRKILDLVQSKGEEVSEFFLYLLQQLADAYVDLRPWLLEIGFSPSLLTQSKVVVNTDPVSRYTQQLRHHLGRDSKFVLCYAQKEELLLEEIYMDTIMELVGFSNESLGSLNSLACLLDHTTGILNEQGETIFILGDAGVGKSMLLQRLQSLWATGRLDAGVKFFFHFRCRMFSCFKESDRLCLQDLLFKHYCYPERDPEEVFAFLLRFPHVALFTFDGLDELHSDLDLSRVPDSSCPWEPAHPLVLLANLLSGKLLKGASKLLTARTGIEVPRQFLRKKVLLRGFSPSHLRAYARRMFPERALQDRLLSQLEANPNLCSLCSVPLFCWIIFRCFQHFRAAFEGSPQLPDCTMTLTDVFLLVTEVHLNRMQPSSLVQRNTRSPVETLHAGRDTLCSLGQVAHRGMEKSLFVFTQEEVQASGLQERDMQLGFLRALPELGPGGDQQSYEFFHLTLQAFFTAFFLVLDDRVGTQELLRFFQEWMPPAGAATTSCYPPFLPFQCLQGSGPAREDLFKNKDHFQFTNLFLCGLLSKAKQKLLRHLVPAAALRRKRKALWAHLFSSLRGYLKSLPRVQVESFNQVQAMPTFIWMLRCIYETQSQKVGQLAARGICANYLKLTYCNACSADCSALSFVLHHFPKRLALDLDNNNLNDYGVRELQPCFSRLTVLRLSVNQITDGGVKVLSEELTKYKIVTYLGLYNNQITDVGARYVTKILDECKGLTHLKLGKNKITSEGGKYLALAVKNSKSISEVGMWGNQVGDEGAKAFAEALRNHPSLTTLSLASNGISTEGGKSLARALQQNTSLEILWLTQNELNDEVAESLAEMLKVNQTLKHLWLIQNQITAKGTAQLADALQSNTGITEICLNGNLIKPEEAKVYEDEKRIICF

[15] = system: HEK293; experiment: cells; assay type: functional, cell-based; details: Homo sapiens; remark: listed apart in the source
[16] = system: HEK293; experiment: inhibition of NOD1-driven NF-kB reporter – cell-based, luminescence, uHTS, primary screen (AID 1578); assay type: functional; details: Homo sapiens
[17] = reduction of Shn3 3'UTR-driven luciferase in osteoblasts – cell-based, Clone20 osteoblasts, firefly luciferase, cherry-picked, dose response (AID 624132); assay type: functional;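 note: firefly luciferase luminescence from reporter carrying the Shn3 3'UTR in osteoblasts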
[18] = THP-1 cell cytotoxicity, dose response, cytotoxicity control for non-replicating M. tuberculosis project (AID 489025); assay type: functional
[19] = cells; assay type: functional
[20] = molecular target: Nonstructural protein 1 (Influenza A virus, UniProt Q194T2); assay type: functional, Influenza A virus (A/California/07/2009(H1N1))
[21] = molecular target: T5, Estrogen receptor (Homo sapiens, UniProt P03372); experiment: ERα coactivator recruitment enhancers – biochemical, TR-FRET, ERα LBD, dose response (AID 737)
T5 sequence (P03372 whole entry): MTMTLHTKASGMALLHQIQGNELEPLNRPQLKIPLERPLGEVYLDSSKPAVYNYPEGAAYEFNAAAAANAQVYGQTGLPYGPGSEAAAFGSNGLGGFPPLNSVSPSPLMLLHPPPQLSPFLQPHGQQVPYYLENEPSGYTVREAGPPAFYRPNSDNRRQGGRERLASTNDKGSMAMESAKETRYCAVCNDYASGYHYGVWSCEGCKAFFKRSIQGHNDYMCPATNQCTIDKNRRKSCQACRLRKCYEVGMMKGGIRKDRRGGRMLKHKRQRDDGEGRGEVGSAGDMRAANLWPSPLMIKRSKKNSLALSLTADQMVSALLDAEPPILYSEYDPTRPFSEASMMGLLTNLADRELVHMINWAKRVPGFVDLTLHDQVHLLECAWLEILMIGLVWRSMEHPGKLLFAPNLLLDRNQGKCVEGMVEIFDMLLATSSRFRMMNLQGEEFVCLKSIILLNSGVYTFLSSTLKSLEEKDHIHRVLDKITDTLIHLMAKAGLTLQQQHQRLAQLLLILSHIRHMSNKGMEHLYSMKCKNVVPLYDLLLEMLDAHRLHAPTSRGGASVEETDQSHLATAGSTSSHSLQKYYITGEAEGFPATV

[22] = molecular target: T6, Hexokinase HKDC1 (Homo sapiens, UniProt Q2TB90); experiment: inhibition of HKDC1 glucose phosphorylation – biochemical, W721R variant, dose response (AID 504729); assay type: functional
T6 sequence (Q2TB90 whole entry): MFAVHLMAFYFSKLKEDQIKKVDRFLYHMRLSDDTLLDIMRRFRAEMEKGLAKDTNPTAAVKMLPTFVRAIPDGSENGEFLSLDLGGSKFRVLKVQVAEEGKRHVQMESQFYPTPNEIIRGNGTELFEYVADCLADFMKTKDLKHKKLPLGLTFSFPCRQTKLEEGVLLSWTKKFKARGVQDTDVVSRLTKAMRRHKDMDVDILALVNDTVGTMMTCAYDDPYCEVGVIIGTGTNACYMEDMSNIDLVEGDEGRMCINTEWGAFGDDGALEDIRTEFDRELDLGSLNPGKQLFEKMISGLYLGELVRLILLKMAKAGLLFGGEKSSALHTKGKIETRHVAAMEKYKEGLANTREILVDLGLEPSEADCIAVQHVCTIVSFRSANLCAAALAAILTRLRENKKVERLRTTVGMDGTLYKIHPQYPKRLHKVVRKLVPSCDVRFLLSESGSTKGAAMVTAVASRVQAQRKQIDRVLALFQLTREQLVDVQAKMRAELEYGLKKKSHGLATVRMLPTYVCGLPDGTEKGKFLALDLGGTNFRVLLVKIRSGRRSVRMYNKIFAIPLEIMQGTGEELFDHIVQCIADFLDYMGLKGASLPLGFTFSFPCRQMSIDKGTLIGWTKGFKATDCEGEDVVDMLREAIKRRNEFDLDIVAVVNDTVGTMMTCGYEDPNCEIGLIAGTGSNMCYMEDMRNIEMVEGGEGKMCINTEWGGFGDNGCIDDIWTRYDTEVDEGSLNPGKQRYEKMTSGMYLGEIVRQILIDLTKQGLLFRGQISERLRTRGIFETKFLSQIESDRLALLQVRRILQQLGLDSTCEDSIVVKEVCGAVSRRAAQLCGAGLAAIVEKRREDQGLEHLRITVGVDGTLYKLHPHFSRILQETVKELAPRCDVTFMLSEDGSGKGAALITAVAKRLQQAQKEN

[23] = molecular target: DNA dC->dU-editing enzyme APOBEC-3A (Homo sapiens, UniProt P31941); experiment: A3A deaminase inhibition for selectivity – biochemical, dose response (AID 504722); assay type: functional
[24] = molecular target: DNA dC->dU-editing enzyme APOBEC-3G (Homo sapiens, UniProt Q9HC16); experiment: Dose Response confirmation of small molecule APOBEC3G DNA Deaminase Inhibitors via a fluorescence-based single-stranded DNA deaminase assay. [Related pubchem assays (depositor defined):AID493012, AID493028]; assay type: functional
DNA dC->dU-editing enzyme APOBEC-3G, sequence (Q9HC16 whole entry): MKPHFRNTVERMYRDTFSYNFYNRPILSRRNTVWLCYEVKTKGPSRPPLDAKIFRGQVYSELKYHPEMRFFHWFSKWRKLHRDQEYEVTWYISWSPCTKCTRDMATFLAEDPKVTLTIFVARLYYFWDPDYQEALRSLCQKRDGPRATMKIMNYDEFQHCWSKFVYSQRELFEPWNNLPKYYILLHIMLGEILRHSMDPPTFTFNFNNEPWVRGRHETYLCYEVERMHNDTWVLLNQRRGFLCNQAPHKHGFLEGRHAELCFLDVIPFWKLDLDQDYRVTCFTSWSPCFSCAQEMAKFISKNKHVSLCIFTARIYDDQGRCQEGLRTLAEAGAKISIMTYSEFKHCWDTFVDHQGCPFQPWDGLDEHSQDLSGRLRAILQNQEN

T2 sequence (Q92731 whole entry): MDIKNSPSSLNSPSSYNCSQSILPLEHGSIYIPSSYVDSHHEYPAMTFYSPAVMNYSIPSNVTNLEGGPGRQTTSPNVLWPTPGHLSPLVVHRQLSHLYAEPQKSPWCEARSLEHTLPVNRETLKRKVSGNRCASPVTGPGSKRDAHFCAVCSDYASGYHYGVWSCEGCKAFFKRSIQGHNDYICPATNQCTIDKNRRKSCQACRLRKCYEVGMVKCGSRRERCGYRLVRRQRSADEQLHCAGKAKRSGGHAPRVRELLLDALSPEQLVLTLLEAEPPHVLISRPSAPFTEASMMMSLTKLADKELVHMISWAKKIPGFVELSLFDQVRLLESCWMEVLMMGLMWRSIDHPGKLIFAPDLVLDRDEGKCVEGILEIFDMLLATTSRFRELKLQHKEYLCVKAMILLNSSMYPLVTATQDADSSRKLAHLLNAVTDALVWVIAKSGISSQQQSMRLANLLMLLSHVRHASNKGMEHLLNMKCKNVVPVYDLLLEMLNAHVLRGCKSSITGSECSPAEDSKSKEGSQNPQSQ
DNA dC->dU-editing enzyme APOBEC-3A, sequence (P31941 whole entry): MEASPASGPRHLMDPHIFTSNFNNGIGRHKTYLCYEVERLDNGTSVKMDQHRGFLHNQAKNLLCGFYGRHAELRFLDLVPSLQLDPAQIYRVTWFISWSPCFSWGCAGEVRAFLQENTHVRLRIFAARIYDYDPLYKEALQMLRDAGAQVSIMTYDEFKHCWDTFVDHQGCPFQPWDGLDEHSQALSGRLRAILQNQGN
Nucleotide-binding oligomerization domain-containing protein 2, sequence (Q9HC29 whole entry, the tested form may be a part): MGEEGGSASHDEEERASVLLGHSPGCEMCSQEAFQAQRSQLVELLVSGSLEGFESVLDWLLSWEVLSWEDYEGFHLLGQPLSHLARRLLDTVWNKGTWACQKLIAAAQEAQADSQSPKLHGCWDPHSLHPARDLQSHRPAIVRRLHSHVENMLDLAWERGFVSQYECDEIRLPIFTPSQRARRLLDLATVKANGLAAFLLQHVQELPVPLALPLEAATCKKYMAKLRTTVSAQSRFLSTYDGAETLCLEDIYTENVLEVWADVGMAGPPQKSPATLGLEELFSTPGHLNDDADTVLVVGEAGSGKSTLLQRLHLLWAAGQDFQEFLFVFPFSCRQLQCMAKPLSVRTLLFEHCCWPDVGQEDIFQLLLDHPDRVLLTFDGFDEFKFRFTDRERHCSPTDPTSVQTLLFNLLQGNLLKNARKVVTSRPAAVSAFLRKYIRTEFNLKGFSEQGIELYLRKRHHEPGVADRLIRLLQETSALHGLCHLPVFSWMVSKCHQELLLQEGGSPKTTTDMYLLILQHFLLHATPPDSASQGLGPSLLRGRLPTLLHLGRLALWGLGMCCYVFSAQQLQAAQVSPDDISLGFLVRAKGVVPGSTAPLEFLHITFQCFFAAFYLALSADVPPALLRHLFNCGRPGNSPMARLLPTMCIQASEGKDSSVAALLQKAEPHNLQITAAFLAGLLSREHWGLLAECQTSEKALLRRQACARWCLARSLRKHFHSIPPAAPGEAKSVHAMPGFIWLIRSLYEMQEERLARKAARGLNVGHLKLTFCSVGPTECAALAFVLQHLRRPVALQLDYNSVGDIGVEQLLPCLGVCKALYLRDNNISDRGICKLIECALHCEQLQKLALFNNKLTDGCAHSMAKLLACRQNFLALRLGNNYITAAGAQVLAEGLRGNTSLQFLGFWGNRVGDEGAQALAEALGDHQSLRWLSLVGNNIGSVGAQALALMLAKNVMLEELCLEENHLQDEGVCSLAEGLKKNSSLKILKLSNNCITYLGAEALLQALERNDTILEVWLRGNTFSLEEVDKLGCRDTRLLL
Nonstructural protein 1, sequence (Q194T2 whole entry, the tested form may be a part): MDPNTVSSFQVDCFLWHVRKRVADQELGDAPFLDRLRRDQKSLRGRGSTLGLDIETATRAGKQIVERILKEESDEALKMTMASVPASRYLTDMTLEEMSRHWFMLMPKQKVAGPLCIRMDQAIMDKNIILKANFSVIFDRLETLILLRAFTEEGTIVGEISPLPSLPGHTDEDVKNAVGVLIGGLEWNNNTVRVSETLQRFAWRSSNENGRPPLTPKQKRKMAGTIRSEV
Tumor necrosis factor, sequence (P01375 whole entry, the tested form may be a part): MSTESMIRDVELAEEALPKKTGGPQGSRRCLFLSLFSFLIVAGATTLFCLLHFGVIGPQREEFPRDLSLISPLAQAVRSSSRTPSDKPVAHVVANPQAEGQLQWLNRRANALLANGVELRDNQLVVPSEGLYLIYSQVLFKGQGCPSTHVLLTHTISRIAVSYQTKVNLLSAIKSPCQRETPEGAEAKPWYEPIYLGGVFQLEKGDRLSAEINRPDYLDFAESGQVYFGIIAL
Cytochrome P450 2D6, sequence (P10635 whole entry): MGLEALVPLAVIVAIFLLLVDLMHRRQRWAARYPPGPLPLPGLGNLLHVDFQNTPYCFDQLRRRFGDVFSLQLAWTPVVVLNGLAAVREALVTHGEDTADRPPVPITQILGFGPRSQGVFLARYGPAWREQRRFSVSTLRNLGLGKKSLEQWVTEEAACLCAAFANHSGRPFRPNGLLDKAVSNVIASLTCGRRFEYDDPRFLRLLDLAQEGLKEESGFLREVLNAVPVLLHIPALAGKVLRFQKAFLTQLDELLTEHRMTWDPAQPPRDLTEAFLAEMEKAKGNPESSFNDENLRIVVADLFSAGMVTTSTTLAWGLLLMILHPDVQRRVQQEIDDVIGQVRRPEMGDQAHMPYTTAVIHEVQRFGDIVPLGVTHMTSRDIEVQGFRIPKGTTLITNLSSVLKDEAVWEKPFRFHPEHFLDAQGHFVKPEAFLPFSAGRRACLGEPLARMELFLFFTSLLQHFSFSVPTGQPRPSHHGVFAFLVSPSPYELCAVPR

CSc1nc2n(n1)C(c1ccccn1)C1=C(O)CC(C)(C)CC1=N2 (configuration not stated)
IC50 [1]: > 100 µM (inactive)

Cc1ccc(C)n1-c1sccc1C(=O)O
IC50 [2]: 4.48 µM (active)
IC50 [3]: 46.9 µM (active)
IC50 [1]: 0.783 µM (active)
IC50 [4]: 6.1 µM (not active)

COc1cccc(/C=C/C2=CC3(C)CC2(C)C(c2cccc(OC)c2)CC3=O)c1 (configuration not stated)
AC50 [5]: 3.16 µM (inconclusive)

O=C(c1ccc(S(=O)(=O)c2ccccc2Cl)c([N+](=O)[O-])c1)N1CCN(Cc2ccccc2)CC1
IC50 [6]: 17.6 µM (active)
EC50 [7]: 11.8 µM (active)
AC50 [8]: 50 µM (active)
AC50 [9]: 3.48 µM (active)
IC50 [10]: 5.54 µM (active)
IC50 [11]: 4.59 µM (active)
IC50 [12]: 15.3 µM (active)
IC50 [13]: 6.58 µM (active)
IC50 [14]: 3.65 µM (active)
IC50 [15]: > 20 µM (inactive)
EC50 [16]: 12.9 µM (active)
AC50 [17]: 5.77 µM (active)

Cc1ccc(Nc2ccccc2N)cc1
CC50 [18]: > 40 µM (active)
IC50 [19]: 0.74 µM (active)
IC50 [20]: 21.9 µM (active)

O=C(Oc1cccc(-c2cnc3ccccc3n2)c1)c1ccco1
EC50 [21]: 26.9 µM (active)

COC(=O)c1ccc(NCc2cc(O)ccc2O)cc1
IC50 [22]: 12.2 µM (active)

Cc1nc2c(O)c3c(c(O)c2nc1C)C1C=CC3CC1
IC50 [22]: 2.23 µM (active)

CCOC(=O)C(C)Oc1cccc2c(=O)n(CC(=O)Nc3ccc4c(c3)OCCO4)ccc12 (configuration not stated)
EC50 [21]: 12.6 µM (not active)

O=[N+]([O-])c1cccc(/C=N/n2c(S)nnc2COc2ccccc2)c1
IC50 [23]: > 100 µM (inactive)
IC50 [24]: 5.51 µM (active)

— ChEMBL document CHEMBL1201862, “PubChem BioAssay data set” (2004)
